Laboratory results published in US20260256792A1, “TREATMENT OF CHRONIC SPONTANEOUS URTICARIA BY ADMINISTERING (R)-2-[3-[4-AMINO-3-(2-FLUORO-4-PHENOXY-PHENYL)PYRAZOLO[3,4-D]PYRIMIDIN-1-YL]PIPERIDINE-1-CARBONYL]-4-METHYL-4-[4-(OXETAN-3-YL)PIPERAZIN-1-YL]PENT-2-ENENITRILE” (priority 2023, published 2026).

System: moderate-to-severe chronic spontaneous urticaria (CSU)
Assay: Phase 2 CSU study: itch severity score over 7 days (ISS7)
Format: in vivo, human
Conditions: for ISS7 Median / ISS7 Mean (SD): End of Study
Source text: The study comprises a 12 week, randomized, double-blind, placebo-controlled, multi-center, dose-ranging efficacy and safety phase, followed by a 40 week open label extension (OLE) phase (see FIG. 1). The study consists of three phases and an optional OLE phase. […] Clinically, CSU is characterized by the spontaneous and recurrent appearance of pruritic hives. The proposed primary endpoints were the UAS7 at Week 12 in EU and EU reference countries and the ISS7 in the US. Regardless of where a participant was from, all assessments were the same. The UAS7 score is a composite score containing both the HSS7 and the ISS7. This allowed a global assessment of the two key components of urticaria: hives and itch. […] The UAS is a validated PRO measure. […] The daily UAS scores range from 0 to 6 point/day. […] Patients were to complete the UAS using the e-diary. […] The following secondary endpoints were to be analyzed using the same approach as for the primary endpoint: • Change from baseline in UAS7 at Week 4 • Change from baseline in UAS7 at Week 12 (for US and US reference countries) • Change from baseline in ISS7 at Week 12 (except US and US reference countries) • Change from baseline in HSS7 at Week 12

[1] = 400 mg TID, Prior Omalizumab Use
[2] = ITT Population, 400 mg BID, Week 2
[3] = ITT Population, 400 mg QPM, Week 3
[4] = ITT Population, 400 mg QPM, Week 5
[5] = ITT Population, 400 mg TID, Week 1
[6] = ITT Population, 400 mg TID, Week 12
[7] = ITT population, 400 mg BID, Week 1
[8] = ITT population, 400 mg BID, Week 3
[9] = ITT population, 400 mg BID, Week 4
[10] = ITT population, 400 mg BID, Week 5
[11] = ITT population, 400 mg BID, Week 6
[12] = ITT population, 400 mg BID, Week 7
[13] = ITT population, 400 mg BID, Week 8
[14] = ITT population, 400 mg BID, Week 9
[15] = ITT population, 400 mg BID, Week 10
[16] = ITT population, 400 mg BID, Week 11
[17] = ITT population, 400 mg BID, Week 12
[18] = ITT population, 400 mg QPM, Week 1
[19] = ITT population, 400 mg QPM, Week 2

## CC(C)(C=C(C#N)C(=O)N1CCC[C@@H](n2nc(-c3ccc(Oc4ccccc4)cc3F)c3c(N)ncnc32)C1)N1CCN(C2COC2)CC1 [rilzabrutinib, (R)-2-[3-[4-amino-3-(2-fluoro-4-phenoxy-phenyl)pyrazolo[3,4-d]pyrimidin-1-yl]piperidine-1-carbonyl]-4-methyl-4-[4-(oxetan-3-yl)piperazin-1-yl]pent-2-enenitrile]
400 mg QPM, Omalizumab-Naïve
  ISS7 Median: 2.00
400 mg TID, Omalizumab-Naïve
  ISS7 Mean (SD): 11.40 (6.11)
[1]
  ISS7 Mean (SD): 9.50 (6.36)
  ISS7 Median: 9.50
[2]
  Imputed non-responder n (%) (ISS7 reduction of 5 points or more): 2 (4.9) n (%)
  Non-responder n (%) (ISS7 reduction of 5 points or more): 19 (46.3) n (%)
  OR for rilzabrutinib vs. placebo (ISS7 reduction of 5 points or more): 2.693
  RRD (%) for rilzabrutinib vs. placebo (ISS7 reduction of 5 points or more): 23.6%
  Responder n (%) (ISS7 reduction of 5 points or more): 22 (53.7) n (%)
[3]
  Imputed non-responder n (%) (ISS7 reduction of 5 points or more): 0 n (%)
  Non-responder n (%) (ISS7 reduction of 5 points or more): 20 (52.6) n (%)
  OR for rilzabrutinib vs. placebo (ISS7 reduction of 5 points or more): 1.881
  RRD (%) for rilzabrutinib vs. placebo (ISS7 reduction of 5 points or more): 15.9%
  Responder n (%) (ISS7 reduction of 5 points or more): 18 (47.4) n (%)
[4]
  Imputed non-responder n (%) (ISS7 reduction of 5 points or more): 2 (5.3) n (%)
  Non-responder n (%) (ISS7 reduction of 5 points or more): 21 (55.3) n (%)
  OR for rilzabrutinib vs. placebo (ISS7 reduction of 5 points or more): 0.781
  RRD (%) for rilzabrutinib vs. placebo (ISS7 reduction of 5 points or more): 6.2%
  Responder n (%) (ISS7 reduction of 5 points or more): 17 (44.7) n (%)
[5]
  Imputed non-responder n (%) (ISS7 reduction of 5 points or more): 0 n (%)
  Non-responder n (%) (ISS7 reduction of 5 points or more): 14 (34.1) n (%)
  OR for rilzabrutinib vs. placebo (ISS7 reduction of 5 points or more): 6.428
  RRD (%) for rilzabrutinib vs. placebo (ISS7 reduction of 5 points or more): 42.3%
  Responder n (%) (ISS7 reduction of 5 points or more): 27 (65.9) n (%)
[6]
  Imputed non-responder n (%) (ISS7 reduction of 5 points or more): 11 (26.8) n (%)
  Non-responder n (%) (ISS7 reduction of 5 points or more): 18 (43.9) n (%)
  OR for rilzabrutinib vs. placebo (ISS7 reduction of 5 points or more): 1.371
  RRD (%) for rilzabrutinib vs. placebo (ISS7 reduction of 5 points or more): 7.9%
  Responder n (%) (ISS7 reduction of 5 points or more): 23 (56.1) n (%)
[7]
  Imputed non-responder n (%) (ISS7 reduction of 5 points or more): 1 (2.4) n (%)
  Non-responder n (%) (ISS7 reduction of 5 points or more): 21 (51.2) n (%)
  OR for rilzabrutinib vs. placebo (ISS7 reduction of 5 points or more): 3.262
  RRD (%) for rilzabrutinib vs. placebo (ISS7 reduction of 5 points or more): 25.5%
  Responder n (%) (ISS7 reduction of 5 points or more): 20 (48.8) n (%)
[8]
  Imputed non-responder n (%) (ISS7 reduction of 5 points or more): 1 (2.4) n (%)
  Non-responder n (%) (ISS7 reduction of 5 points or more): 19 (46.3) n (%)
  OR for rilzabrutinib vs. placebo (ISS7 reduction of 5 points or more): 2.451
  RRD (%) for rilzabrutinib vs. placebo (ISS7 reduction of 5 points or more): 21.5%
  Responder n (%) (ISS7 reduction of 5 points or more): 22 (53.7) n (%)
[9]
  Imputed non-responder n (%) (ISS7 reduction of 5 points or more): 4 (9.8) n (%)
  Non-responder n (%) (ISS7 reduction of 5 points or more): 19 (46.3) n (%)
  RRD (%) for rilzabrutinib vs. placebo (ISS7 reduction of 5 points or more): 5.6%
  Responder n (%) (ISS7 reduction of 5 points or more): 22 (53.7) n (%)
[10]
  Imputed non-responder n (%) (ISS7 reduction of 5 points or more): 5 (12.2) n (%)
  Non-responder n (%) (ISS7 reduction of 5 points or more): 18 (43.9) n (%)
  RRD (%) for rilzabrutinib vs. placebo (ISS7 reduction of 5 points or more): 2.7%
  Responder n (%) (ISS7 reduction of 5 points or more): 23 (56.1) n (%)
[11]
  Imputed non-responder n (%) (ISS7 reduction of 5 points or more): 4 (9.8) n (%)
  Non-responder n (%) (ISS7 reduction of 5 points or more): 20 (48.8) n (%)
  RRD (%) for rilzabrutinib vs. placebo (ISS7 reduction of 5 points or more): 2.7%
  Responder n (%) (ISS7 reduction of 5 points or more): 21 (51.2) n (%)
[12]
  Imputed non-responder n (%) (ISS7 reduction of 5 points or more): 4 (9.8) n (%)
  Non-responder n (%) (ISS7 reduction of 5 points or more): 19 (46.3) n (%)
  OR for rilzabrutinib vs. placebo (ISS7 reduction of 5 points or more): 1.258
  RRD (%) for rilzabrutinib vs. placebo (ISS7 reduction of 5 points or more): 5.5%
  Responder n (%) (ISS7 reduction of 5 points or more): 22 (53.7) n (%)
[13]
  Imputed non-responder n (%) (ISS7 reduction of 5 points or more): 5 (12.2) n (%)
  Non-responder n (%) (ISS7 reduction of 5 points or more): 16 (39.0) n (%)
  OR for rilzabrutinib vs. placebo (ISS7 reduction of 5 points or more): 1.388
  RRD (%) for rilzabrutinib vs. placebo (ISS7 reduction of 5 points or more): 8.3%
  Responder n (%) (ISS7 reduction of 5 points or more): 25 (61.0) n (%)
[14]
  Imputed non-responder n (%) (ISS7 reduction of 5 points or more): 9 (22.0) n (%)
  Non-responder n (%) (ISS7 reduction of 5 points or more): 19 (46.3) n (%)
  OR for rilzabrutinib vs. placebo (ISS7 reduction of 5 points or more): 1.233
  RRD (%) for rilzabrutinib vs. placebo (ISS7 reduction of 5 points or more): 5.6%
  Responder n (%) (ISS7 reduction of 5 points or more): 22 (53.7) n (%)
[15]
  Imputed non-responder n (%) (ISS7 reduction of 5 points or more): 10 (24.4) n (%)
  Non-responder n (%) (ISS7 reduction of 5 points or more): 22 (53.7) n (%)
  OR for rilzabrutinib vs. placebo (ISS7 reduction of 5 points or more): 0.786
  RRD (%) for rilzabrutinib vs. placebo (ISS7 reduction of 5 points or more): −6.2%
  Responder n (%) (ISS7 reduction of 5 points or more): 19 (46.3) n (%)
[16]
  Imputed non-responder n (%) (ISS7 reduction of 5 points or more): 9 (22.0) n (%)
  Non-responder n (%) (ISS7 reduction of 5 points or more): 19 (46.3) n (%)
  OR for rilzabrutinib vs. placebo (ISS7 reduction of 5 points or more): 0.837
  RRD (%) for rilzabrutinib vs. placebo (ISS7 reduction of 5 points or more): −4.5%
  Responder n (%) (ISS7 reduction of 5 points or more): 22 (53.7) n (%)
[17]
  Imputed non-responder n (%) (ISS7 reduction of 5 points or more): 14 (34.1) n (%)
  Non-responder n (%) (ISS7 reduction of 5 points or more): 21 (51.2) n (%)
  OR for rilzabrutinib vs. placebo (ISS7 reduction of 5 points or more): 1.063
  RRD (%) for rilzabrutinib vs. placebo (ISS7 reduction of 5 points or more): 1.6%
  Responder n (%) (ISS7 reduction of 5 points or more): 20 (48.8) n (%)
[18]
  Imputed non-responder n (%) (ISS7 reduction of 5 points or more): 0 n (%)
  Non-responder n (%) (ISS7 reduction of 5 points or more): 25 (65.8) n (%)
  OR for rilzabrutinib vs. placebo (ISS7 reduction of 5 points or more): 1.855
  RRD (%) for rilzabrutinib vs. placebo (ISS7 reduction of 5 points or more): 12.7%
  Responder n (%) (ISS7 reduction of 5 points or more): 13 (34.2) n (%)
[19]
  Imputed non-responder n (%) (ISS7 reduction of 5 points or more): 0 n (%)
  Non-responder n (%) (ISS7 reduction of 5 points or more): 23 (60.5) n (%)
  OR for rilzabrutinib vs. placebo (ISS7 reduction of 5 points or more): 1.662
  Responder n (%) (ISS7 reduction of 5 points or more): 15 (39.5) n (%)
ITT population, 400 mg QPM, Week 4
  Imputed non-responder n (%) (ISS7 reduction of 5 points or more): 1 (2.6) n (%)
